Reference: patent publication US20260062412A1, “NITROGEN-CONTAINING HETEROCYCLIC COMPOUND HAVING MYT1 INHIBITORY ACTIVITY” (CHUGAI SEIYAKU KABUSHIKI KAISHA, priority 2023, published 2026)

Target: MYT1 protein (Homo sapiens (Human), UniProt Q99640)
Experiment: Test for binding to ATP binding site of MYT1 (Kinase Tracer 178 / Eu-Anti-GST antibody TR-FRET)
Conditions: ATP binding site of MYT1, 30 minutes at room temperature

Sequence of MYT1 protein (Q99640 whole entry): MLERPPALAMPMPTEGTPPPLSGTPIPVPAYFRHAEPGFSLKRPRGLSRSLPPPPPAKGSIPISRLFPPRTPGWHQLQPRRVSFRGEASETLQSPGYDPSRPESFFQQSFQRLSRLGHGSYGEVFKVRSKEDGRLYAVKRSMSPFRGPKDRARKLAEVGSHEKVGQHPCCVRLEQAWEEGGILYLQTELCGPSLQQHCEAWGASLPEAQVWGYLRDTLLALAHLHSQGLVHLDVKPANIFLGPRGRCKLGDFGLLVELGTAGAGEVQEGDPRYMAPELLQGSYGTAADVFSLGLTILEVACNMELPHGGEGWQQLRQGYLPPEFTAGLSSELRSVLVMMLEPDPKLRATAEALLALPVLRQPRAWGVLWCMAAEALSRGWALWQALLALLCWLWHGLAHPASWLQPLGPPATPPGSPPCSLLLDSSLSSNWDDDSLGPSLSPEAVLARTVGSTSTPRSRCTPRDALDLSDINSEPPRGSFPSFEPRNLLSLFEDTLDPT

Q: With Nc1c(-c2ccc(F)c3[nH]ncc23)c2cc(N3CCC(F)(F)C3)c3cccnc3c2[nH]c1=O [Compound D8, 3-Amino-6-(3,3-difluoropyrrolidin-1-yl)-4-(7-fluoro-1H-indazol-4-yl)-1H-1,10-phenanthrolin-2-one] as the molecule, how does the IC50 read?
A: Its IC50 is 10 nM.

Q: With Nc1c(-c2ccc(F)c3[nH]ncc23)c2cc(N3CCOCC3)c3cccnc3c2[nH]c1=O [Compound D9, 3-Amino-4-(7-fluoro-1H-indazol-4-yl)-6-morpholin-4-yl-1H-1,10-phenanthrolin-2-one] as the molecule, how does the IC50 read?
A: The IC50 was 22 nM.

Q: Which IC50 does the source give for Nc1c(-c2ccc(F)c3[nH]ncc23)c2cc(N3CC4(COC4)C3)c3cccnc3c2[nH]c1=O [Compound D10, 3-Amino-4-(7-fluoro-1H-indazol-4-yl)-6-(2-oxa-6-azaspiro[3,3]heptan-6-yl)-1H-1,10-one] here?
A: The IC50 was 3.9 nM.

Q: Which IC50 does the source give for Nc1c(-c2ccc(F)c3[nH]ncc23)c2cc(N3CC(N4CC(F)(F)C4)C3)c3cccnc3c2[nH]c1=O [Compound D11, 3-Amino-6-[3-(3,3-difluoroazetidin-1-yl)azetidin-1-yl]-4-(7-fluoro-1H-indazol-4-yl)-1H-1,10-phenanthrolin-2-one] here?
A: Its IC50 is 20 nM.

Q: Which IC50 does the source give for Nc1c(-c2ccc(F)c3[nH]ncc23)c2cc(N3CCN4CCOC[C@H]4C3)c3cccnc3c2[nH]c1=O [Compound D12, 6-[(9aR)-3,4,6,7,9,9a-hexahydro-1H-pyrazino[2,1-c][1,4]oxazin-8-yl]-3-amino-4-(7-fluoro-1H-indazol-4-yl)-1H-1,10-phenanthrolin-2-one] here?
A: Its IC50 is 49 nM.

Q: With Nc1c(-c2ccc(F)c3[nH]ncc23)c2cc(N3CCN4CCOC[C@@H]4C3)c3cccnc3c2[nH]c1=O [Compound D13, 6-[(9aS)-3,4,6,7,9,9a-hexahydro-1H-pyrazino[2,1-c][1,4]oxazin-8-yl]-3-amino-4-(7-fluoro-1H-indazol-4-yl)-1H-1,10-phenanthrolin-2-one] as the molecule, how does the IC50 read?
A: The IC50 was 25 nM.

Q: Nc1c(-c2ccc(F)c3[nH]ncc23)c2cc(N3CCN(CC(F)F)CC3)c3cccnc3c2[nH]c1=O [Compound D14, 3-Amino-6-[4-(2,2-difluoroethyl)piperazin-1-yl]-4-(7-fluoro-1H-indazol-4-yl)-1H-1,10-phenanthrolin-2-one] was tested. Which IC50 did it give?
A: The IC50 was 33 nM.

Q: Which IC50 does the source give for Nc1c(-c2ccc(F)c3[nH]ncc23)c2cc(N3CCN(CC(F)(F)F)CC3)c3cccnc3c2[nH]c1=O [Compound D15, 3-Amino-4-(7-fluoro-1H-indazol-4-yl)-6-[4-(2,2,2-trifluoroethyl)piperazin-1-yl]-1H-1,10-phenanthrolin-2-one] here?
A: The IC50 was 69 nM.

Q: Which IC50 does the source give for CS(=O)(=O)Nc1cc2c(-c3ccc(F)c4[nH]ncc34)c(N)c(=O)[nH]c2c2ncccc12 [Compound D16, N-[8-Amino-7-(7-fluoro-1H-indazol-4-yl)-9-oxo-10H-1,10-phenanthroline-5-yl]methanesulfonamide] here?
A: Its IC50 is 2.7 nM.

Q: With Nc1c(-c2ccc(F)c3[nH]ncc23)c2cc(NS(=O)(=O)C3CC3)c3cccnc3c2[nH]c1=O [Compound D17, N-[8-amino-7-(7-fluoro-1H-indazol-4-yl)-9-oxo-10H-1,10-phenanthrolin-5-yl]cyclopropanesulfonamide] as the molecule, how does the IC50 read?
A: The IC50 was 3.1 nM.

Q: COc1cc2c(-c3ccc(F)c4[nH]ncc34)c(N)c(=O)[nH]c2c2ncccc12 [Compound D18, 3-Amino-4-(7-fluoro-1H-indazol-4-yl)-6-methoxy-1H-1,10-phenanthrolin-2-one] was tested. Which IC50 did it give?
A: The IC50 was 0.25 nM.

Q: CC(=O)Nc1cc2c(-c3ccc(F)c4[nH]ncc34)c(N)c(=O)[nH]c2c2ncccc12 [Compound D19, N-[8-amino-7-(7-fluoro-1H-indazol-4-yl)-9-oxo-10H-1,10-phenanthrolin-5-yl]acetamide] was tested. Which IC50 did it give?
A: The IC50 was 22 nM.

Q: CC(C)Nc1cc2c(-c3ccc(F)c4[nH]ncc34)c(N)c(=O)[nH]c2c2ncccc12 [Compound D20, 3-Amino-4-(7-fluoro-1H-indazol-4-yl)-6-(propan-2-ylamino)-1H-1,10-phenanthrolin-2-one] was tested. Which IC50 did it give?
A: The IC50 was 7 nM.

Q: Nc1c(-c2ccc(F)c3[nH]ncc23)c2cc(C3CCNCC3)c3cccnc3c2[nH]c1=O [Compound D21, 3-Amino-4-(7-fluoro-1H-indazol-4-yl)-6-piperidin-4-yl-1H-1,10-phenanthrolin-2-one] was tested. Which IC50 did it give?
A: Its IC50 is 3.8 nM.

Q: For CN1CCC(c2cc3c(-c4ccc(F)c5[nH]ncc45)c(N)c(=O)[nH]c3c3ncccc23)CC1 [Compound D22, 3-Amino-4-(7-fluoro-1H-indazol-4-yl)-6-(1-methylpiperidin-4-yl)-1H-1,10-phenanthrolin-2-one], which IC50 is on record?
A: The IC50 was 2.9 nM.

Q: With CC(C)N1CCC(c2cc3c(-c4ccc(F)c5[nH]ncc45)c(N)c(=O)[nH]c3c3ncccc23)CC1 [Compound D23, 3-Amino-4-(7-fluoro-1H-indazol-4-yl)-6-(1-propan-2-ylpiperidin-4-yl)-1H-1,10-phenanthrolin-2-one] as the molecule, how does the IC50 read?
A: The IC50 was 6.4 nM.

Q: With Nc1c(-c2ccc(F)c3[nH]ncc23)c2cc(C3CCN(C4CCC4)CC3)c3cccnc3c2[nH]c1=O [Compound D24, 3-Amino-6-(1-cyclobutylpiperidin-4-yl)-4-(7-fluoro-1H-indazol-4-yl)-1H-1,10-phenanthrolin-2-one] as the molecule, how does the IC50 read?
A: Its IC50 is 6.9 nM.

Q: How did the IC50 turn out when Nc1c(-c2ccc(F)c3[nH]ncc23)c2cc(C3CCN(C4CCOCC4)CC3)c3cccnc3c2[nH]c1=O [Compound D25, 3-Amino-4-(7-fluoro-1H-indazol-4-yl)-6-[1-(oxan-4-yl)piperidin-4-yl]-1H-1,10-phenanthrolin-2-one] was run?
A: Its IC50 is 7.8 nM.

Q: With CCN1CCC(c2cc3c(-c4ccc(F)c5[nH]ncc45)c(N)c(=O)[nH]c3c3ncccc23)CC1 [Compound D26, 3-Amino-6-(1-ethylpiperidin-4-yl)-4-(7-fluoro-1H-indazol-4-yl)-1H-1,10-phenanthrolin-2-one] as the molecule, how does the IC50 read?
A: The IC50 was 3.3 nM.

Q: For Nc1c(-c2ccc(F)c3[nH]ncc23)c2cc(C3CCN(C4COC4)CC3)c3cccnc3c2[nH]c1=O [Compound D27, 3-Amino-4-(7-fluoro-1H-indazol-4-yl)-6-[1-(oxetan-3-yl)piperidin-4-yl]-1H-1,10-phenanthrolin-2-one], which IC50 is on record?
A: The IC50 was 0.53 nM.

Q: With Nc1c(-c2ccc(F)c3[nH]ncc23)c2cc(C3CNC3)c3cccnc3c2[nH]c1=O [Compound D28, 3-Amino-6-(azetidin-3-yl)-4-(7-fluoro-1H-indazol-4-yl)-1H-1,10-phenanthrolin-2-one] as the molecule, how does the IC50 read?
A: The IC50 was 1.7 nM.

Q: For CC(C)N1CC(c2cc3c(-c4ccc(F)c5[nH]ncc45)c(N)c(=O)[nH]c3c3ncccc23)C1 [Compound D29, 3-Amino-4-(7-fluoro-1H-indazol-4-yl)-6-(1-propan-2-ylazetidin-3-yl)-1H-1,10-phenanthrolin-2-one], which IC50 is on record?
A: The IC50 was 5.7 nM.

Q: With CN1CC(c2cc3c(-c4ccc(F)c5[nH]ncc45)c(N)c(=O)[nH]c3c3ncccc23)C1 [Compound D30, 3-Amino-4-(7-fluoro-1H-indazol-4-yl)-6-(1-methylazetidin-3-yl)-1H-1,10-phenanthrolin-2-one] as the molecule, how does the IC50 read?
A: The IC50 was 2.9 nM.

Q: With Nc1c(-c2cccc3[nH]ncc23)c2ccccc2oc1=O [Compound E1, 3-Amino-4-(1H-indazol-4-yl) chromen-2-one] as the molecule, how does the IC50 read?
A: Its IC50 is 1100 nM.

Q: O=c1[nH]c2ccccc2c(-c2cccc3[nH]ncc23)c1O [Compound E2, 3-Hydroxy-4-(1H-indazol-4-yl)-1H-quinolin-2-one] was tested. Which IC50 did it give?
A: The IC50 was 840 nM.

Q: For Nc1c(-c2ccc(F)c3[nH]ncc23)c2cc(Br)c3ncc(F)cc3c2[nH]c1=O [Compound F1, 3-Amino-6-bromo-9-fluoro-4-(7-fluoro-1H-indazol-4-yl)-1H-1,7-phenanthrolin-2-one], which IC50 is on record?
A: Its IC50 is 12 nM.

Q: How did the IC50 turn out when Cc1cc2c(-c3ccc(F)c4[nH]ncc34)c(N)c(=O)[nH]c2c2cc(F)cnc12 [Compound F3, 3-Amino-9-fluoro-4-(7-fluoro-1H-indazol-4-yl)-6-methyl-1H-1,7-phenanthrolin-2-one] was run?
A: The IC50 was 4 nM.

Q: For Nc1c(-c2cc(F)c(F)c3[nH]ncc23)c2cc(Br)c3ncc(F)cc3c2[nH]c1=O [Compound F4, 3-Amino-6-bromo-4-(6,7-difluoro-1H-indazol-4-yl)-9-fluoro-1H-1,7-phenanthrolin-2-one], which IC50 is on record?
A: The IC50 was 22 nM.

Q: COc1cc2c(-c3cc(F)c(F)c4[nH]ncc34)c(N)c(=O)[nH]c2c2cc(F)cnc12 [Compound F5, 3-Amino-4-(6,7-difluoro-1H-indazol-4-yl)-9-fluoro-6-methoxy-1H-1,7-phenanthrolin-2-one] was tested. Which IC50 did it give?
A: Its IC50 is 3.3 nM.

Q: Cc1cc2c(-c3cc(F)c(F)c4[nH]ncc34)c(N)c(=O)[nH]c2c2cc(F)cnc12 [Compound F6, 3-Amino-4-(6,7-difluoro-1H-indazol-4-yl)-9-fluoro-6-methyl-1H-1,7-phenanthrolin-2-one] was tested. Which IC50 did it give?
A: The IC50 was 9.3 nM.

Q: How did the IC50 turn out when Nc1c(-c2ccc(F)c3[nH]ncc23)c2cc(Br)c3nccnc3c2[nH]c1=O [Compound G1, 8-Amino-5-bromo-7-(7-fluoro-1H-indazol-4-yl)-10H-pyrido[2,3-f]quinoxalin-9-one] was run?
A: Its IC50 is 16 nM.

Q: With O=c1[nH]c2c(cc(Br)c3nccnc32)c(-c2ccc(F)c3[nH]ncc23)c1Cl [Compound G2, 5-Bromo-8-chloro-7-(7-fluoro-1H-indazol-4-yl)-10H-pyrido[2,3-f]quinoxalin-9-one] as the molecule, how does the IC50 read?
A: The IC50 was 270 nM.

Q: With Cc1cc2c(-c3ccc(F)c4[nH]ncc34)c(N)c(=O)[nH]c2c2nccnc12 [Compound G3, 8-Amino-7-(7-fluoro-1H-indazol-4-yl)-5-methyl-10H-pyrido[2,3-f]quinoxalin-9-one] as the molecule, how does the IC50 read?
A: Its IC50 is 7.9 nM.

Q: Nc1c(-c2ccc(F)c3[nH]ncc23)c2cc(C3CC3)c3nccnc3c2[nH]c1=O [Compound G4, 8-Amino-5-cyclopropyl-7-(7-fluoro-1H-indazol-4-yl)-10H-pyrido[2,3-f]quinoxalin-9-one] was tested. Which IC50 did it give?
A: The IC50 was 3.2 nM.

Q: For CS(=O)(=O)Nc1cc2c(-c3ccc(F)c4[nH]ncc34)c(N)c(=O)[nH]c2c2nccnc12 [Compound G5, N-[8-amino-7-(7-fluoro-1H-indazol-4-yl)-9-oxo-10H-pyrido[2,3-f]quinoxalin-5-yl]methanesulfonamide], which IC50 is on record?
A: The IC50 was 9.3 nM.

Q: With Nc1c(-c2ccc(F)c3[nH]ncc23)c2cc(NS(=O)(=O)C3CC3)c3nccnc3c2[nH]c1=O [Compound G6, N-[8-amino-7-(7-fluoro-1H-indazol-4-yl)-9-oxo-10H-pyrido[2,3-f]quinoxalin-5-yl]cyclopropanesulfonamide] as the molecule, how does the IC50 read?
A: The IC50 was 7.4 nM.

Q: CN1CCN(c2cc3c(-c4ccc(F)c5[nH]ncc45)c(N)c(=O)[nH]c3c3nccnc23)CC1 [Compound G7, 8-Amino-7-(7-fluoro-1H-indazol-4-yl)-5-(4-methylpiperazin-1-yl)-10H-pyrido[2,3-f]quinoxalin-9-one] was tested. Which IC50 did it give?
A: Its IC50 is 2.5 nM.
